Patent publication US9956211B2, “Pharmaceutical compositions comprising a local anaesthetic such as bupivacaine for local administration to the mouth or throat” (MOBERG PHARMA AB, priority 2011, dated 2018)
Where two headings read alike, the source gives them in different places.

Legend:
[1] = cited from earlier work
[2] = Study I: single dose kinetics of compressed bupivacaine lozenge; format: in vivo, human
Method: Bupivacaine has not been used as local oral administration before.
The purpose of this study is to investigate the pharmacokinetics of bupivacaine after topical oral administration. The plasma concentration of bupivacaine is measured after absorption over an intact oral mucosa after administration of a compressed lozenge containing respectively 5, 10, 25 and 50 mg bupivacaine as a single dose and 25 mg as multiple doses.
(§1) These are prospective, descriptive studies. The subjects were ten healthy young males. Samples of full blood were taken in lithium-heparin pipes for anticoagulant effect. After the blood sample is collected it is centrifuged at 2500 rounds per minute for 15 minutes at 4° C. Approximately 1 ml plasma is taken from the sample and put into vials and right away put into a −80° C. freezer, where it is kept until analysis.
The aim of the study was to investigate the pharmacokinetics of bupivacaine by topical oral administration. The concentration of bupivacaine was measured in the blood after absorption from an intact oral mucosa after administration of a compressed lozenge containing respectively 5, 10 or 25 mg of bupivacaine. On study days 1, 2, 3 and 4 (interspersed with single wash-out days) the subjects were given one 5 mg lozenge, one 10 mg lozenge, one 25 mg lozenge or two 25 mg lozenges, respectively.
Before the study began, the subjects drank 250 ml water to remove any traces of coffee, cola or other potential absorption enhancers. After 10 minutes a compressed lozenge was administered. […] A baseline blood sample was taken, the lozenge was administered and then blood samples were taken at 0 min (i.e. when the lozenge has completely dissolved in the mouth, 15 min, 30 min, 45 min, 60 min, 75 min, 90 min, 105 min, 120 min, 150 min, 180 min, 210 min, 240 min, 270 min, 300 min, 330 min and 360 min.

[3] = Study II: multiple doses kinetics; format: in vivo, human; conditions: 25 mg lozenge four times a day, 72 hours
Method: as §1
The multiple doses study was conducted over 72 hours consecutively, where the subjects were administrated a lozenge containing 25 mg of bupivacaine four times a day in the awake hours.
The aim of the study was to measure the concentration of bupivacaine in the blood after absorption from an intact oral mucosa after administration of a lozenge containing 25 mg of bupivacaine given four times a day. […] Therefore the lozenges were administered at 8 am, […], 6 pm and 10 pm, to give a total daily dose of 100 mg bupivacaine.
The subjects drank 250 ml water to remove any traces of coffee, cola or other potential absorption enhancers. After 10 minutes a compressed lozenge was administered.

[4] = Study VII: single dose kinetics, fasting; format: in vivo, human; conditions: 25 mg compressed lozenge, fasting vs not fasting
Method: The single dose kinetics was conducted over 10 hours. The subjects had been fasting from 12 pm the night before the study began. The subjects were administrated a compressed lozenge containing 25 mg of bupivacaine. The blood collection began at approximately 7 am.
In our previous results we have seen an extra peak. The aim of this study was to investigate if the extra peak was from gastrointestinal absorption.
Baseline blood sample. Administration of lozenge. Blood sample at the following times: 0 min, 15 min, 30 min, 45 min, 60 min, 75 min, 90 min, 105 min, 120 min, 150 min, 180 min, 210 min, 240 min, 300 min, 360 min, 420 min, 480 min, 540 min and 600 min. (Time 0 minutes is when the lozenge is completely dissolved in the mouth.)

[5] = Pilot study Aarhus: kinetics, non-intact mucosa; format: in vivo, human; conditions: 25 mg lozenge, three head or neck cancer patients, stage 3 mucositis, non-intact oral mucosa
Method: The study was conducted over 2-3 hours on three patients from Aarhus University hospital. The patients were suffering from head or neck cancer with stage 3 mucositis with a non-intact oral mucosa. The aim of the study was to investigate the pharmacokinetics of bupivacaine by topical oral administration of a 25 mg lozenge. A baseline blood sample was taken, followed by administration of the lozenge, and then blood samples were taken at 0 min (i.e. when the lozenge is completely dissolved in the mouth), 15 min, 30 min, 45 min, 60 min, 75 min, 90 min, 105 min, 120 min, 150 min and 180 min.

[6] = Activity after heating during the casting process; format: physicochemical; conditions: heated at up to 180° C. during the casting process
[7] = plasma concentration; cited from earlier work
[8] = safety pharmacology, single and repeated dose toxicity, reproduction toxicity, mutagenic potential, local toxicity; cited from earlier work
[9] = standard aqueous medium, pH7.4, 25° C.

In the case of CCOC(=O)c1ccc(N)cc1 [benzocaine], the octanol/water partition coefficient [1, 9] is listed as 81.

For CCCCN1CCCCC1C(=O)Nc1c(C)cccc1C (stereo not drawn) [bupivacaine, 1-butyl-N-(2,6-dimethylphenyl)piperidine-2-carboxamide], the discomfort ([2]; 5 mg and 10 mg compressed lozenge) was “none of them felt any discomfort”, the anesthetic effect felt ([2]; 5 mg and 10 mg compressed lozenge, healthy subjects) was “felt the anesthetic effect” and the “discomfort, especially in the pharynx” value ([2]; 25 mg compressed lozenge) was “some of the subjects felt discomfort”. For the same molecule, the discomfort ([2]; 50 mg (two 25 mg lozenges)) was “discomfort was further increased”, the side effects ([2]; 5, 10, 25 and 50 mg single doses) was “None of the subjects experienced any side effects” and the “maximum bupivacaine plasma concentration” value ([2]; maximum dosage 50 mg (two 25 mg compressed lozenges), single dose, intact oral mucosa, healthy subjects) was “less than 600 ng/ml”. The “accumulation in the body” value [3] was “not being accumulated in the body”, the peak plasma concentrations [3] was “lower than the toxic level” and the “influence of fasting on plasma level” value [4] was “did not influence the results”. The “maximum plasma concentration of bupivacaine” value [5] was “below 700 ng/ml”, the activity after heating [6] was “retains full activity” and the “toxic level in man” value [7] was 2 to 4 µg/mL. For the same molecule, the “risks for humans from preclinical safety data” value [8] was “no special risks for humans” and the octanol/water partition coefficient [1, 9] was 346.

For CCCN(CC)C(CC)C(=O)Nc1c(C)cccc1C (stereo not drawn) [etidocaine], the octanol/water partition coefficient [1, 9] is listed as 800.

In the case of CCCN1CCCC[C@H]1C(=O)Nc1c(C)cccc1C [ropivacaine], the octanol/water partition coefficient [1, 9] is listed as 115.

For levobupivacaine, the octanol/water partition coefficient ([1]; pH 7.4) is listed as 346.
